For the experiment, the target named is endogenous CGRP receptor (Homo sapiens, UniProt O60894+Q16602). The experiment in a line: CGRP functional antagonism using SK-N-MC-BLA (4C10), β-lactamase transcriptional reporter assay. The experiment is classed as cell-based. The note with it: SK-N-MC (4C10) cells, inhibition of β-lactamase expression in the presence of 200 pM CGRP. The text has this:
Measuring CGRP Functional Antagonism Using SK-N-MC-BLA (4C10):
CGRP functional antagonism was characterized in a cell based transcriptional assay using a recombinant SK-N-MC line. To introduce the transcriptional reporter system, SK-N-MC cell line was transduced with a retroviral vector containing β-lactamase gene downstream of cAMP responsive promoter. The expression of β-lactamase is triggered by cAMP increase that is a downstream event of activation of endogenous CGRP receptor. Single clones were separated using Fluorescent Activated Cell Sorting (FACS) based on CGRP induced β-lactamase activity. β-lactamase activity was measured using a fluorescence energy transfer (FRET) dye, CCF4. […] To evaluate functional antagonist activity of compounds in SK-N-MC (4C10) line, compounds were evaluated for their inhibition of β-lactamase expression in the presence of CGRP.
SK-N-MC (4C10) was cultured in Minimal Essential Media (MEM) (Invitrogen) supplemented with 1 mM non-essential amino acids solution (Invitrogen), 100 units/ml Penicillin-Streptomycin (Invitrogen), 1 mM sodium pyruvate (Invitrogen) and 10% fetal bovine serum. For the β-lactamase assay, low serum, 1% FBS in MEM was used. 30,000 cells were plated into each wells of poly-D-lysine coated 384-well plate (Becton Dickinson) a day prior to the assay. SK-N-MC (4C10) was preincubated with compounds for 30 min before the addition of 200 pM CGRP. The assay was incubated for 3 hours at 37° C. to allow β-lactamase expression. CCF4 dye was added and incubated for 2 hours at room temperature. […] Curve fitting and IC50 calculation were carried about using MOD3.
In general terms: Reporter assays use an easily measured gene product as a stand-in for the process of interest.
endogenous CGRP receptor, sequence (Q16602 23-461): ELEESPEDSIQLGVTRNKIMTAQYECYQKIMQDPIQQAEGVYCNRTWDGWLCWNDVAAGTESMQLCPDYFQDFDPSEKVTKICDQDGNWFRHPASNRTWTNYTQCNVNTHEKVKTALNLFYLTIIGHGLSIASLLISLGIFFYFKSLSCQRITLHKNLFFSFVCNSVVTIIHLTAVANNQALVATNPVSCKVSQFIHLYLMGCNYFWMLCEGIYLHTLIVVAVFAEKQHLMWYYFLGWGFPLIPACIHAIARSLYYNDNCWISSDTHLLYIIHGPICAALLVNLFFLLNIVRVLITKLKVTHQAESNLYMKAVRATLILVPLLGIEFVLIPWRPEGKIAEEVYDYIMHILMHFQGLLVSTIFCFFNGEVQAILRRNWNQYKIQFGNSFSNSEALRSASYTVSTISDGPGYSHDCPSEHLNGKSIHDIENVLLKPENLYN
endogenous CGRP receptor, sequence (O60894 27-148): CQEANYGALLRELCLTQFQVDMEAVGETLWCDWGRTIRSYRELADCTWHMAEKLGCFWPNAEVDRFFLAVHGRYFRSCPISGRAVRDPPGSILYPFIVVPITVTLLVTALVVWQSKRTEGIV
For the molecule `CC(C)(C)CCN1C(=O)C(CC(=O)N2CCC(N3CCc4ccccc4NC3=O)CC2)SC1c1c(F)cccc1F` (stereo not drawn) [Compound 217], the IC50 (usually the concentration that gives 50% inhibition) is less than 1 µM.

Turning to `CCC1SC(CC(=O)N2CCC(n3c(=O)[nH]c4ccccc43)CC2)C(=O)N1CC(F)(F)F` (stereo not drawn) [Compound 218], the IC50 was more than 5 µM.

Regarding `CC(C)CCN1C(=O)C(CC(=O)N2CCC(N3Cc4ccccc4NC3=O)CC2)SC1c1cccc(C(F)(F)F)c1F` (stereo not drawn) [Compound 219], the IC50 is 1 to 5 µM.

In the case of `CC(C)CCN1C(=O)C(CC(=O)N2CCC(N3CCc4ccccc4NC3=O)CC2)SC1c1c(F)cccc1Cl` (stereo not drawn) [Compound 221], the IC50 was less than 1 µM.

With `Cc1ccc(C2SC(CC(=O)N3CCC(N4Cc5ccccc5NC4=O)CC3)C(=O)N2CCC(C)C)c(C)c1` (stereo not drawn) [Compound 222], the IC50 was less than 1 µM.

Regarding `CC(C)CCN1C(=O)C(CC(=O)N2CCC3(CC2)OC(=O)Nc2ccccc23)SC1c1ccccc1` (stereo not drawn) [Compound 223], the IC50 is more than 5 µM.

Turning to `COc1ccc(C2SC(CC(=O)N3CCC(N4Cc5ccccc5NC4=O)CC3)C(=O)N2CCC(C)C)cc1OC` (stereo not drawn) [Compound 228], the IC50 lay in the range of 1 to 5 µM.

`O=C(CC1SC(c2ccccc2)N(CCc2ccccc2)C1=O)N1CCC(N2CCc3ccccc3NC2=O)CC1` (stereo not drawn) [Compound 231]: the IC50 was less than 1 µM.

`CC(C)CCN1C(=O)C(CC(=O)N2CCC(N3Cc4ccccc4NC3=O)CC2)SC1c1ccc2c(c1)OCCN2C` (stereo not drawn) [Compound 232]: the IC50 fell in the range of 1 to 5 µM.

As to `O=C(CC1SC(c2ccccc2)N(CC(F)(F)C(F)(F)F)C1=O)N1CCC(N2CCc3ccccc3NC2=O)CC1` (stereo not drawn) [Compound 233], the IC50 is less than 1 µM.

As to `CC(C)(C)CCN1C(=O)C(CC(=O)N2CCC(N3Cc4ccccc4NC3=O)CC2)SC1c1ccc(F)cc1F` (stereo not drawn) [Compound 234], the IC50 was less than 1 µM.

Regarding `CC(C)(C)CCN1C(=O)C(CC(=O)N2CCC(N3Cc4ccccc4NC3=O)CC2)SC1c1ccccc1N1CCCCC1` (stereo not drawn) [Compound 235], the IC50 was in the range of 1 to 5 µM.

Regarding `CC(C)C[C@H](CO)N1C(=O)C(CC(=O)N2CCC(N3Cc4ccccc4NC3=O)CC2)SC1c1ccccc1` (stereo partly drawn) [Compound 238], the IC50 fell in the range of 1 to 5 µM.

As to `CC(C)CCN1C(=O)C(CC(=O)N2CCC(N3CCc4ccccc4NC3=O)CC2)SC1C1CCCOC1` (stereo not drawn) [Compound 239], the IC50 was less than 1 µM.

As for `CC(C)CCN1C(=O)C(CC(=O)N2CCC(N3Cc4ccccc4NC3=O)CC2)SC12C=CC(C)(C)CC2` (stereo not drawn) [Compound 241], the IC50 is 1 to 5 µM.

With `CC(C)CCN1C(=O)C(CC(=O)N2CCC(N3Cc4ccccc4NC3=O)CC2)SC1c1ccc(Br)cc1` (stereo not drawn) [Compound 242], the IC50 is 1 to 5 µM.

For the molecule `COC(=O)[C@@H](CC1CCCCC1)N1C(=O)C(CC(=O)N2CCC(N3CCc4ccccc4NC3=O)CC2)SC1c1ccccc1` (stereo partly drawn) [Compound 243], the IC50 lay in the range of 1 to 5 µM.

For the molecule `CC(C)CC1SC(CC(=O)N2CCC(N3CCc4ccccc4NC3=O)CC2)C(=O)N1CCc1ccncc1` (stereo not drawn) [Compound 245], the IC50 is more than 5 µM.

On to `CC(C)CCN1C(=O)C(CC(=O)N2CCC(N3Cc4ccccc4NC3=O)CC2)SC1c1ccccc1OCc1ccccc1` (stereo not drawn) [Compound 246], for which the IC50 is less than 1 µM.

`CC(C)CCN1C(=O)C(CC(=O)N2CCC(N3CCc4ccccc4NC3=O)CC2)SC1c1cccc(OC(F)(F)C(F)F)c1` (stereo not drawn) [Compound 247]: the IC50 lay in the range of 1 to 5 µM.

For `CC(C)CCN1C(=O)C(CC(=O)N2CCC(c3cc4ccccc4[nH]c3=O)CC2)SC1c1ccccc1` (stereo not drawn) [Compound 249], the IC50 is less than 1 µM.

As for `COCC(C)N1C(=O)C(CC(=O)N2CCC(N3Cc4ccccc4NC3=O)CC2)SC1c1ccccc1` (stereo not drawn) [Compound 250], the IC50 was more than 5 µM.

Consider `CC(C)(C)CCN1C(=O)C(CC(=O)N2CCC(N3Cc4ccccc4NC3=O)CC2)SC1c1ccccc1F` (stereo not drawn) [Compound 252], for which the IC50 was less than 1 µM.

Consider `CC(C)CCN1C(=O)C(CC(=O)N2CCC(N3Cc4ccccc4NC3=O)CC2)SC12CCC(C(F)(F)F)CC2` (stereo not drawn) [Compound 253], for which the IC50 is 1 to 5 µM.

With `C=CCN1C(=O)C(CC(=O)N2CCC(N3Cc4ccccc4NC3=O)CC2)SC1c1ccccc1` (stereo not drawn) [Compound 254], the IC50 lay in the range of 1 to 5 µM.

With `CN1CCN(c2ccccc2C2SC(CC(=O)N3CCC(n4cc(-c5ccccc5)[nH]c4=O)CC3)C(=O)N2CCC(C)(C)C)CC1` (stereo not drawn) [Compound 257], the IC50 was less than 1 µM.

Take `CC(C)CCN1C(=O)C(CC(=O)N2CCC(N3CCc4ccccc4NC3=O)CC2)SC1C1CCOCC1` (stereo not drawn) [Compound 258]: the IC50 is 1 to 5 µM.

In the case of `CC(C)CCN1C(=O)C(CC(=O)N2CCC3(CC2)CNC(=O)O3)SC1c1ccccc1` (stereo not drawn) [Compound 261], the half-inhibitory concentration (IC50) is more than 5 µM.

As to `CC(C)CCN1C(=O)C(CC(=O)N2CCC(N3CCc4ccccc4NC3=O)CC2)SC1CCc1ccccc1` (stereo not drawn) [Compound 262], the IC50 fell in the range of 1 to 5 µM.

Consider `Cc1c(F)cccc1C1SC(CC(=O)N2CCC(N3Cc4ccccc4NC3=O)CC2)C(=O)N1CCC(C)C` (stereo not drawn) [Compound 267], for which the IC50 is less than 1 µM.

For `CCCN1C(=O)C(CC(=O)N2CCC(N3Cc4ccccc4NC3=O)CC2)SC1c1ccccc1` (stereo not drawn) [Compound 269], the IC50 lay in the range of 1 to 5 µM.

Turning to `CC(C)CCN1C(=O)C(CC(=O)N2CCC(N3C(=O)Cc4ccccc43)CC2)SC1c1ccccc1` (stereo not drawn) [Compound 270], the IC50 is more than 5 µM.

`COc1ccc(C2SC(CC(=O)N3CCC(N4Cc5ccccc5NC4=O)CC3)C(=O)N2CCC(C)C)cc1` (stereo not drawn) [Compound 272]: the IC50 lay within 1 to 5 µM.

For `CN1C(=O)C(CC(=O)N2CCC(N3Cc4ccccc4NC3=O)CC2)SC1c1ccccc1` (stereo not drawn) [Compound 273, 3,4-Dihydro-3-(1-(2-(3-methyl-4-oxo-2-phenylthiazolidin-5-yl)acetyl)piperidin-4-yl)quinazolin-2(1H)-one], the IC50 fell in the range of 1 to 5 µM.

With `CN1CCN(c2ccccc2[C@@H]2SC(CC(=O)N3CCC(n4c(=O)[nH]c5ncccc54)CC3)C(=O)N2CCC(C)(C)C)CC1` (stereo partly drawn) [Compound 274], the IC50 is less than 1 µM.

For the molecule `CC(C)CCN1C(=O)C(CC(=O)N2CCC(N3Cc4ccccc4NC3=O)CC2)SC12CCC2` (stereo not drawn) [Compound 275], the IC50 is more than 5 µM.

With `CC(C)CCN1C(=O)C(CC(=O)N2CCC(N3Cc4ccccc4NC3=O)CC2)SC1CC(C)(C)C` (stereo not drawn) [Compound 276], the IC50 lay within 1 to 5 µM.

Regarding `CC(C)(C)CCN1C(=O)C(CC(=O)N2CCC(N3CCc4ccccc4NC3=O)CC2)SC1c1cccc2cc[nH]c12` (stereo not drawn) [Compound 277], the IC50 was less than 1 µM.

As for `O=C(CC1SC(c2ccccc2)N(CCC(F)(F)F)C1=O)N1CCC(N2CCc3ccccc3NC2=O)CC1` (stereo not drawn) [Compound 280], the IC50 was less than 1 µM.

Regarding `COc1ccc(F)cc1C1CCN(C(=O)CC2SC(c3ccccc3)N(CCC(C)C)C2=O)CC1` (stereo not drawn) [Compound 281], the IC50 is more than 5 µM.

With `CCN1C(=O)C(CC(=O)N2CCC(N3CCc4ccccc4NC3=O)CC2)SC1c1ccccc1` (stereo not drawn) [Compound 284], the IC50 was in the range of 1 to 5 µM.

Consider `CC(C)CCN1C(=O)C(CC(=O)N2CCC(n3c(=O)[nH]c4ccccc43)CC2)SC1c1ccccc1-n1cccn1` (stereo not drawn) [Compound 291], for which the IC50 was less than 1 µM.

For the molecule `CC(C)CCN1C(=O)C(CC(=O)N2CCC(n3c(=O)[nH]c4ccccc43)CC2)SC1c1ccccc1N1CCCCC1` (stereo not drawn) [Compound 292], the IC50 fell in the range of 1 to 5 µM.

In the case of `CC(C)CCN1C(=O)C(CC(=O)N2CCC(n3c(=O)[nH]c4ccccc43)CC2)SC1c1ccccc1N(C)C` (stereo not drawn) [Compound 293], the IC50 was less than 1 µM.

As to `CC(C)CCN1C(=O)C(CC(=O)N2CCC(n3c(=O)[nH]c4ccccc43)CC2)SC1c1ccccc1N1CCOCC1` (stereo not drawn) [Compound 294], the IC50 was less than 1 µM.

Values taken from patent publication US8163737B2 (Vertex Pharmaceuticals Incorporated, priority 2006, dated 2012).
